Assay results taken from publication PMC8836076, “A Fungal Versatile GH10 Endoxylanase and Its Glycosynthase Variant: Synthesis of Xylooligosaccharides and Glycosides of Bioactive Phenolic Compounds” (International Journal of Molecular Sciences, 2022).

Target: T1, rXynSOS (Talaromyces amestolkiae, UniProt A0A364LCP8, E255G)
T1 construct: gene BHQ10_009513; mature protein (389 aa, GH10 domain + C-terminal CBM1), 19-aa signal peptide removed, pPIC9 in Pichia pastoris GS115, no tag, starts QLNTAAK (from primer), glycosylated, 53 kDa monomer
Assay: ESI-MS and NMR of xylooligosaccharide synthesis
Assay type: biochemical
Details: glycosynthase; 20 mM X2F as only reactant (donor and acceptor), 50 mM sodium acetate pH 5, 25 °C, 16 h

T1 sequence (A0A364LCP8 entry or part of it E255G): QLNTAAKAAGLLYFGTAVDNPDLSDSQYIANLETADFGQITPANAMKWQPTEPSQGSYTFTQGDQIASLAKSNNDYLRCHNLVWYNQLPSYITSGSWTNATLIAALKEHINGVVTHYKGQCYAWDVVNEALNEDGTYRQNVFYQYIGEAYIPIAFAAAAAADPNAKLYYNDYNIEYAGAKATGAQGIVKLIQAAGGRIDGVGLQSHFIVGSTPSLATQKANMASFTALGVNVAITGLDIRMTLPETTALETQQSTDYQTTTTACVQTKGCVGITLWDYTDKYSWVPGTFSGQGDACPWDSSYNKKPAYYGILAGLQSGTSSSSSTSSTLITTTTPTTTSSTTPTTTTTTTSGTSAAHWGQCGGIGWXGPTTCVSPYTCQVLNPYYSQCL

## O[C@@H]1[C@@H](O)[C@H](O[C@@H]2CO[C@H](F)[C@H](O)[C@H]2O)OC[C@H]1O [X2F, xylobiose-fluoride]
  ESI-MS and NMR of xylooligosaccharide synthesis: reaction with X2F as the only reactant molecule (no acceptor was added)
